Patent US20050282743A1, “Molecular interactions in cells” (Arbor Vita Corporation, priority 2001, published 2005)
Ends that are not written are not given here. Peptide text beside a SMILES is read from it. * marks the point of attachment. Biotin = O=C1N[C@H]2[C@H](CS[C@H]2CCCCC(=O)*)N1

Biological target: T1, PDZ protein (GST-PDZ fusion) (Homo sapiens, UniProt Q9ULD6)
T1 construct: made in house; host or cells: E. coli (DH5alpha, BL21 or JM109)
T1 sequence (Q9ULD6 1-942): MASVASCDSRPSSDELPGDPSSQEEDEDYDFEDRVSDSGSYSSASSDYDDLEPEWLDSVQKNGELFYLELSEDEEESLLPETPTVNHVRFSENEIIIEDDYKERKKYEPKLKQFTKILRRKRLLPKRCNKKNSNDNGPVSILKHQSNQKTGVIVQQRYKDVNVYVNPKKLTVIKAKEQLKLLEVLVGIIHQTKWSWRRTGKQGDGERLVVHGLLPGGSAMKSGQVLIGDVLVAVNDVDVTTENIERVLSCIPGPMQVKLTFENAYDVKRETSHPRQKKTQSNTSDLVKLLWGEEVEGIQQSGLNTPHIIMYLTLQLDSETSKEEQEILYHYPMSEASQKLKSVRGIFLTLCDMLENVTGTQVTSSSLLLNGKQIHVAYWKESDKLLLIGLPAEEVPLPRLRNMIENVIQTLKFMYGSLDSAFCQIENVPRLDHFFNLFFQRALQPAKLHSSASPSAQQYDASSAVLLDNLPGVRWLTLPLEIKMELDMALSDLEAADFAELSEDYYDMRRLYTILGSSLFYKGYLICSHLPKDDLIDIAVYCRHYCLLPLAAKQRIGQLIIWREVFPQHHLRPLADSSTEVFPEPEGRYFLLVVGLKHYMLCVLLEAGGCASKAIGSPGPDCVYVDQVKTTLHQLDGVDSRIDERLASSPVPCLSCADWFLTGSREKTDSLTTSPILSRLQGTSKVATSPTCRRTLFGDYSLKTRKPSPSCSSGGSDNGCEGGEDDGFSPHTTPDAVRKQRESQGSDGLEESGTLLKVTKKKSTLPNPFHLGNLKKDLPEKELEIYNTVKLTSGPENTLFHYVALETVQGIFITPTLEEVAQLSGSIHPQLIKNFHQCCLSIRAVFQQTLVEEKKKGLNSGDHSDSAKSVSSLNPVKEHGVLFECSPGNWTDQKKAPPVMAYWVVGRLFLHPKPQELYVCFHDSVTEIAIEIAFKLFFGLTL
Assay: G' assay (10 uM PL peptide), results of TABLE 7 and TABLE 12
Type: binding
Settings: PDZ KIAA1284, PDZ Domain 1
In short: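 Biotinylated PL peptides at 10 uM (vs 20 uM in G^0 assay) bound to GST-PDZ fusions; PDZ protein at 5 ug/ml unless another concentration listed. Bound peptide read as A450 nm, classified 0–5 (0 = A450 0; 5 = A450 >4 repeated).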

Compound	Classification
CSCC[C@H](NC(=O)[C@H](C)NC(=O)[C@H](CCCNC(=N)N)NC(=O)CNC(=O)[C@@H](NC(=O)[C@H](Cc1c[nH]c2ccccc12)NC(=O)[C@H](CCCNC(=N)N)NC(=O)CNC(=O)CCCC[C@@H]1SC[C@@H]2NC(=O)N[C@@H]21)[C@@H](C)O)C(=O)N[C@@H](CO)C(=O)N[C@@H](C)C(=O)N[C@@H](Cc1c[nH]c2ccccc12)C(=O)N[C@@H](CCCCN)C(=O)N1CCC[C@H]1C(=O)N[C@H](C(=O)N[C@@H](CCCNC(=N)N)C(=O)N[C@@H](CCCNC(=N)N)C(=O)N[C@@H](CCC(=O)O)C(=O)N[C@H](C(=O)N[C@@H](CCC(=O)O)C(=O)N[C@H](C(=O)O)C(C)C)[C@@H](C)O)[C@@H](C)O [HPV E6 #35 (modified)] (Biotin-GRWTGRAMSAWKPTRRETEV-OH; C-terminus assumed)	1 (A450 nm 0-1)
A2AA_HUMAN (modified) (Biotin-HDFRRAFKKILARGDRKRIV; not fully specified)	1 (A450 nm 0-1)
